Series [1] is described as follows: Turbidimetric kinetic solubility assay. The following applies: PBS, 1% DMSO, 37 °C, 2 h, estimated range.
Procedure: The turbidimetric solubility assay, which allows a rapid determination of the kinetic solubility of newly synthesized compounds using small amounts of their DMSO solutions, was used to assess the kinetic solubility [38].
The compounds’ DMSO stock solutions in concentration of 10 mM were serially diluted by factor 3.3×, 3×, 3.3× and 3× in DMSO. Prepared solutions were spiked into phosphate-buffered saline (PBS, 100 mM) to obtain final compounds’ concentrations of 100, 30, 10, 3 and 1 µM (3 µL of prepared dilutions were spiked to 297 µL of PBS, with final DMSO content of 1%, v/v). All compounds were tested in two replicas per concentration. Prepared solutions were incubated at 37 °C for 2 h with gentle shaking. Blank solutions were also prepared by spiking DMSO in PBS buffer (1% of DMSO, v/v). […] Compound/control samples are compared to the blank solution. […] Results were expressed as an estimated solubility range (lower and upper bound).
Series [2] is described as follows: Chrom logD determination (fast-gradient HPLC). The following applies: pH 7.4.
Series [3] deals with cervical carcinoma (HeLa). Kind of series: In vitro antiproliferative activity, HeLa. Type of series: cell-based, human. The following applies: HeLa cells. The procedure:
(§1) Antiproliferative activity of compounds 11a−11c, 12a−12c, 13a−13c, 14a−14c, 15a−15c, 16a, 23a−23c, 24a−24c, 25a−25c, 34a−34c and 35a−35c was evaluated in vitro on four human tumor cell lines (American Type Culture Collection, Manassas, VA, USA): metastatic colorectal adenocarcinoma (SW620), ductal pancreatic adenocarcinoma (CFPAC-1), hepatocellular carcinoma (HepG2) and cervical carcinoma (HeLa) as well as normal skin fibroblasts (HFF).

In series [4] the test system is metastatic colorectal adenocarcinoma (SW620). In words: In vitro antiproliferative activity, SW620. It counts as cell-based, human. The following applies: SW620 cells. The protocol:
as §1

Series [5] has as its system hepatocellular carcinoma (HepG2). Kind of series: In vitro antiproliferative activity, HepG2. To be noted: HepG2 cells. Type of series: cell-based, human. The procedure: as §1
For series [6], the system named is ductal pancreatic adenocarcinoma (CFPAC-1). Kind of series: In vitro antiproliferative activity, CFPAC-1. It counts as cell-based, human. To be noted: CFPAC-1 cells. The procedure:
as §1

For series [7], the system named is normal skin fibroblasts (HFF). In words: Cytotoxicity on non-tumor cells, HFF. It counts as cell-based, human. The protocol:
as §1

The values that follow come from publication PMC7180452, “Purine and Purine Isostere Derivatives of Ferrocene: An Evaluation of ADME, Antitumor and Electrochemical Properties” (Molecules, 2020).

Regarding `Nc1ncnc2c1ncn2Cc1cn(C[c-]2cccc2)nn1.[Fe+2].c1cc[cH-]c1` [Compound 12a, 6-Amino-9-[1-(1-ferrocenymethyl-1,2,3-triazol-4-yl)methyl]-9H-purine], the “Kinetic Solubility” value in series [1] was 30 to 100 µM. Moreover, the “Chrom logD” value in series [2] is reported as 2.85. Further, the IC50 in series [3] was greater than 100 µM; in series [4] it was greater than 100 µM; in series [5] it was greater than 100 µM; in series [6], greater than 100 µM; in series [7], 56.6 ± 15.6 µM.
In the case of `CC([c-]1cccc1)n1cc(Cn2cnc3c(N)ncnc32)nn1.[Fe+2].c1cc[cH-]c1` (centres unmarked) [Compound 12b, 6-Amino-9-[1-(1-ferrocenyl-1-methylmethyl-1,2,3-triazol-4-yl)methyl]-9H-purine], the “Kinetic Solubility” value in series [1] is reported as greater than 100 µM. The “Chrom logD” value in series [2] is given as 3.09. Also, the IC50 came to 76.4 ± 3.41 µM in series [3]; 75 ± 8.93 µM in series [4]; 68.6 ± 9.15 µM in series [5]; 70.2 ± 6.5 µM in series [6]; 18.4 ± 2.64 µM in series [7].
For the molecule `Nc1ncnc2c1ncn2Cc1cn(-[c-]2cccc2)nn1.[Fe+2].c1cc[cH-]c1` [Compound 12c, 6-Amino-9-[1-(1-ferrocenyl-1,2,3-triazol-1-yl)methyl]-9H-purine], in series [1], the “Kinetic Solubility” value is 3 to 10 µM. The “Chrom logD” value in series [2] is 2.64. For the same molecule, the half-inhibitory concentration (IC50) in series [3] was greater than 100 µM; in series [4], greater than 100 µM; in series [5], greater than 100 µM; in series [6] it was greater than 100 µM; in series [7], 54.5 ± 4.96 µM.
As for `CC([c-]1cccc1)n1cc(Cn2cnc3c(Cl)ncnc32)nn1.[Fe+2].c1cc[cH-]c1` (centres unmarked) [Compound 13b, 6-Chloro-9-[1-(1-ferrocenyl-1-methylmethyl-1,2,3-triazol-4-yl)methyl]-9H-purine], the “Kinetic Solubility” value in series [1] was 30 to 100 µM. Besides, the “Chrom logD” value in series [2] is listed as 4.64. Moreover, the IC50 in series [3] turned out to be 40.3 ± 4.52 µM; in series [4] it was 36.6 ± 3.42 µM; in series [5], 38.8 ± 10.1 µM; in series [6] it was 43.8 ± 10.9 µM; in series [7] it was 6.79 ± 1.06 µM.
Take `Clc1ncnc2c1ncn2Cc1cn(-[c-]2cccc2)nn1.[Fe+2].c1cc[cH-]c1` [Compound 13c, 6-Chloro-9-[1-(1-ferrocenyl-1,2,3-triazol-1-yl)methyl]-9H-purine]: the “Kinetic Solubility” value in series [1] is reported as greater than 100 µM. Further, the “Chrom logD” value in series [2] is reported as 4.19. For the same molecule, the IC50 was determined as 46.8 ± 6.72 µM in series [3]; 51.8 ± 1.9 µM in series [4]; 54.7 ± 3.21 µM in series [5]; 54.7 ± 5.13 µM in series [6]; 6.77 ± 2.78 µM in series [7].
In the case of `Nc1nc(Cl)c2ncn(Cc3cn(C[c-]4cccc4)nn3)c2n1.[Fe+2].c1cc[cH-]c1` [Compound 14a, 2-Amino-6-chloro-9-[1-(1-ferrocenymethyl-1,2,3-triazol-4-yl)methyl]-9H-purine], the “Kinetic Solubility” value in series [1] is 30 to 100 µM. In addition, the “Chrom logD” value in series [2] is recorded as 3.62. The IC50 in series [3] was 71.4 ± 16.1 µM; in series [4], 60.2 ± 24.4 µM; in series [5] it was 60.1 ± 5.73 µM; in series [6], 49.5 ± 5.03 µM; in series [7] it was greater than 100 µM.
Consider `CC([c-]1cccc1)n1cc(Cn2cnc3c(Cl)nc(N)nc32)nn1.[Fe+2].c1cc[cH-]c1` (centres unmarked) [Compound 14b, 2-Amino-6-chloro-9-[1-(1-ferrocenyl-1-methylmethyl-1,2,3-triazol-4-yl)methyl]-9H-purine], for which, in series [1], the “Kinetic Solubility” value was 30 to 100 µM. For the same molecule, the “Chrom logD” value in series [2] came to 3.90. For the same molecule, the IC50 in series [3] was greater than 100 µM; in series [4], 98.7 ± 19.7 µM; in series [5], 77.1 ± 5.92 µM; in series [6], 67.4 ± 9.12 µM; in series [7] it was 11.5 ± 5.09 µM.
On to `Nc1nc(Cl)c2ncn(Cc3cn(-[c-]4cccc4)nn3)c2n1.[Fe+2].c1cc[cH-]c1` [Compound 14c, 2-Amino-6-chloro-9-[1-(1-ferrocenyl-1,2,3-triazol-1-yl)methyl]-9H-purine], for which the “Kinetic Solubility” value in series [1] is less than 1 µM. The “Chrom logD” value in series [2] was 3.50. Also, the IC50 in series [3] is greater than 100 µM; in series [4] it was 81.3 ± 1.23 µM; in series [5], greater than 100 µM; in series [6], 90.5 ± 1.83 µM; in series [7], 24.6 ± 4.45 µM.
As for `Clc1ncnc2ncn(Cc3cn(-[c-]4cccc4)nn3)c12.[Fe+2].c1cc[cH-]c1` [Compound 15c, 6-Chloro-7-[1-(1-ferrocenyl-1,2,3-triazol-1-yl)methyl]-7H-purine], the “Kinetic Solubility” value in series [1] is greater than 100 µM. Further, in series [2], the “Chrom logD” value is reported as 3.68. The concentration for half-maximal inhibition (IC50) was found to be 69.2 ± 25.5 µM in series [3]; 45.5 ± 4.52 µM in series [4]; 81.7 ± 17.1 µM in series [5]; 72.2 ± 13.7 µM in series [6]; 29.6 ± 4.28 µM in series [7].
Take `Nc1nc(Cl)c2c(ncn2Cc2cn(C[c-]3cccc3)nn2)n1.[Fe+2].c1cc[cH-]c1` [Compound 16a, 2-Amino-6-chloro-7-[1-(1-ferrocenymethyl-1,2,3-triazol-4-yl)methyl]-7H-purine]: the “Kinetic Solubility” value in series [1] was less than 1 µM. For the same molecule, in series [2], the “Chrom logD” value worked out at 3.37. The IC50 is greater than 100 µM in series [3]; greater than 100 µM in series [4]; greater than 100 µM in series [5]; greater than 100 µM in series [6]; 5.3 ± 5.36 µM in series [7].
As to `Clc1ncnc2c1ccn2CCn1cc(-[c-]2cccc2)nn1.[Fe+2].c1cc[cH-]c1` [Compound 34a, 4-Chloro-7-(2-(4-ferrocenyl-1,2,3-triazol-1-yl)ethyl)-7H-pyrrolo[2,3-d]pyrimidine], in series [1], the “Kinetic Solubility” value was 10 to 30 µM. In addition, in series [2], the “Chrom logD” value was 4.92. Besides, the IC50 in series [3], in series [4], in series [5], in series [6] and in series [7] was greater than 100 µM in each case.
With `[Fe+2].c1cc[c-](-c2cn(CCn3ccc4c(N5CCCC5)ncnc43)nn2)c1.c1cc[cH-]c1` [Compound 34b, 4-(Pyrrolidin-1-yl)-7-[2-(4-ferrocenyl-1,2,3-triazol-1-yl)ethyl]-7H-pyrrolo[2,3-d]pyrimidine], the “Kinetic Solubility” value in series [1] was 10 to 30 µM. The “Chrom logD” value in series [2] is reported as 4.30. Also, the IC50 in series [3], in series [4], in series [5], in series [6] and in series [7] was greater than 100 µM in each case.
On to `[Fe+2].c1cc[c-](-c2cn(CCn3ccc4c(N5CCCCC5)ncnc43)nn2)c1.c1cc[cH-]c1` [Compound 34c, 4-(Piperidin-1-yl)-7-[2-(4-ferrocenyl-1,2,3-triazol-1-yl)ethyl]-7H-pyrrolo[2,3-d]pyrimidine], for which the “Kinetic Solubility” value in series [1] was 10 to 30 µM. The “Chrom logD” value in series [2] worked out at 5.49. Moreover, the IC50 in series [3] was 71.1 ± 15.9 µM; in series [4] it was 57.6 ± 6.55 µM; in series [5], 57.6 ± 13.8 µM; in series [6], 45.8 ± 9.11 µM; in series [7], 20.2 ± 1.54 µM.
Take `Clc1ncnc2c1ncn2CCn1cc(-[c-]2cccc2)nn1.[Fe+2].c1cc[cH-]c1` [Compound 35a, 6-Chloro-9-[2-(4-ferrocenyl-1,2,3-triazol-1-yl)ethyl]-9H-purine]: the “Kinetic Solubility” value in series [1] was 10 to 30 µM. Moreover, the “Chrom logD” value in series [2] amounted to 3.70. Further, the IC50 in series [3] was 63 ± 6.06 µM; in series [4], 78.2 ± 5.69 µM; in series [5], 48.1 ± 7.85 µM; in series [6] it was 65.3 ± 6.23 µM; in series [7], 6 ± 2.99 µM.

As a reminder, the IC50 is the concentration that inhibits the measured activity by half.
